Source: ChEMBL document CHEMBL1909046, “DrugMatrix in vitro pharmacology data”

Columns and labels:
[1] = molecular target: T1, C-X-C chemokine receptor type 2 (Homo sapiens, UniProt P25025); assay type: cell membranes, Membrane; details: cho-k1; also: in other assays of this panel Not Active means under 50% inhibition at 10 µM
T1 sequence (P25025 whole entry): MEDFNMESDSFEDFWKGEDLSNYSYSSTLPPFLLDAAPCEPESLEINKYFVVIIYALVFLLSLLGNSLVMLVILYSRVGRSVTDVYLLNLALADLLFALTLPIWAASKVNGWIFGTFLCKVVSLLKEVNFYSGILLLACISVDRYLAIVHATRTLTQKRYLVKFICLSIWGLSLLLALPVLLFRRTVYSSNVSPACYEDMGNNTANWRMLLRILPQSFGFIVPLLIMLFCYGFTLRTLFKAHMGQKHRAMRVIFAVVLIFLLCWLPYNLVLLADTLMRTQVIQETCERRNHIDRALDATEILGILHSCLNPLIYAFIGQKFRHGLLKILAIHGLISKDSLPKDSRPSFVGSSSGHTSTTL

[2] = molecular target: T2, Nitric oxide synthase, inducible (Mus musculus, UniProt P29477); parameters: species or system Escherichia coli;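 also: inhibition of iNOS enzyme activity measured with L-arginine as substrate; in other assays of this panel Not Active means under 50% inhibition at 10 µM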
T2 sequence (P29477 whole entry): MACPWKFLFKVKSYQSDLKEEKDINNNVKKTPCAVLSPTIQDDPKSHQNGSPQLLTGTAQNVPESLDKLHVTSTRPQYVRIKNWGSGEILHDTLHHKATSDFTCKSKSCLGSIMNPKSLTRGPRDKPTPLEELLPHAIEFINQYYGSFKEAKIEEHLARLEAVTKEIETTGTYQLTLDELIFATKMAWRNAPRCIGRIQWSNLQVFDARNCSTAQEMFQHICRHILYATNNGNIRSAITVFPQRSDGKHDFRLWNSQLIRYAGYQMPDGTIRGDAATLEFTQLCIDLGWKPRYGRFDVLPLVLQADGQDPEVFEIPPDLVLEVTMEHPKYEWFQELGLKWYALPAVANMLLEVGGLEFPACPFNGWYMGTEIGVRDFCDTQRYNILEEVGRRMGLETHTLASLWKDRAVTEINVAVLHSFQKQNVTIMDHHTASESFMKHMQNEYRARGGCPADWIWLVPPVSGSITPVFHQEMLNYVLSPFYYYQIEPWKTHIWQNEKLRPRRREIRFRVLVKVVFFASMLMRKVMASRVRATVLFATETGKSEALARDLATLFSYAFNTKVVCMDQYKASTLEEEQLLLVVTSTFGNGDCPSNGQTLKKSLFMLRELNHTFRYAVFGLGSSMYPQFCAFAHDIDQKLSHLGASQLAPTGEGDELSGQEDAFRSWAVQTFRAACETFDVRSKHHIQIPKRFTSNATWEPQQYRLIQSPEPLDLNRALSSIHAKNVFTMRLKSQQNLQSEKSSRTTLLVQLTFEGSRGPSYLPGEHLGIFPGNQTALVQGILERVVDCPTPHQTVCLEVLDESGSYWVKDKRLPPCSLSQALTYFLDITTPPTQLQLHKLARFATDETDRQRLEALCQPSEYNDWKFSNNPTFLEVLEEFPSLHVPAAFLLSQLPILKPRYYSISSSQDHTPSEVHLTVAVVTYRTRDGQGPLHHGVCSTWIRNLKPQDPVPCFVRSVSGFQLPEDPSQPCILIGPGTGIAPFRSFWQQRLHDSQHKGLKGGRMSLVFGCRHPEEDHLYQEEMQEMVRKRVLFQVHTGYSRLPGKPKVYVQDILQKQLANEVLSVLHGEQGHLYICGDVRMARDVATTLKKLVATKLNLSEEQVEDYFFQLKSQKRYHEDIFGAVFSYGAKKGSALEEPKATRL

Glycine receptor = Glycine receptor (Rattus norvegicus, UniProt P22771+P24524+P07727+P20781); assay type: cell membranes, Wistar, Spinal cord, Membrane; also: in other assays of this panel Not Active means under 50% inhibition at 10 µM
[3] = DRUGMATRIX: Calcium Channel Type L, Dihydropyridine radioligand binding (ligand: [3H] Nitrendipine); assay type: cell membranes, Rattus norvegicus, Wistar, Cerebral cortex, Membrane; details: Not Active = under 50% inhibition at 10 µM
[4] = DRUGMATRIX: Atrial Natriuretic Factor (ANF) radioligand binding (ligand: [125I] ANF (rat)); assay type: cell membranes, Cavia porcellus, Dunkin-Hartley, Adrenal gland, Membrane; details: Not Active = under 50% inhibition at 10 µM
[5] = molecular target: Platelet-activating factor receptor (Homo sapiens, UniProt P25105); assay type: tissue-based; also: in other assays of this panel Not Active means under 50% inhibition at 10 µM
Platelet-activating factor receptor, sequence (P25105 whole entry): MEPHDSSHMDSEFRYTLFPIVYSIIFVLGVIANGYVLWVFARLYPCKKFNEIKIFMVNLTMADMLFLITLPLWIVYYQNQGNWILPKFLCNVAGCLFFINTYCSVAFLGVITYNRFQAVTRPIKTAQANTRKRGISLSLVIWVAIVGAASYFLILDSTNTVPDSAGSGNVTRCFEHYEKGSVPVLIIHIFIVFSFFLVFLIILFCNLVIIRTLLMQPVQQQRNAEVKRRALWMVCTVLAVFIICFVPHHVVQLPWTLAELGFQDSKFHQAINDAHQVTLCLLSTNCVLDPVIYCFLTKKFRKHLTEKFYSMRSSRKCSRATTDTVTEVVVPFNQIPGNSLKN

Calcitonin receptor = molecular target: T3, Calcitonin receptor (Homo sapiens, UniProt P30988); assay type: cell membranes, Membrane; details: t47d; also: in other assays of this panel Not Active means under 50% inhibition at 10 µM
T3 sequence (P30988 whole entry): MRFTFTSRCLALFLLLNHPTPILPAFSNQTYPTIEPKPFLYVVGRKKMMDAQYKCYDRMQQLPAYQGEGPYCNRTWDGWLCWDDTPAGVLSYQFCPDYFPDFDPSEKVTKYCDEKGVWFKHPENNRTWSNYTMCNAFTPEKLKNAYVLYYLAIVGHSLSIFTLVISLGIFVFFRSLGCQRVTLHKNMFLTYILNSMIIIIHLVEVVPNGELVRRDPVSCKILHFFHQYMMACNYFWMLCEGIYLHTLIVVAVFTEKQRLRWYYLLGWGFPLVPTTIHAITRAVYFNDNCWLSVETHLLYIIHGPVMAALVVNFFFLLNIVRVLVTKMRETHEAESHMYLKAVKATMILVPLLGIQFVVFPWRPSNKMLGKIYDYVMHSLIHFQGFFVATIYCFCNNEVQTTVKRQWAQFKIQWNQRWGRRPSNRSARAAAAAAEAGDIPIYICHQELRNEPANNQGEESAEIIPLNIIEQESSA

Melanocortin receptor 3 = Melanocortin receptor 3 (Homo sapiens, UniProt P41968); assay type: cell membranes, Membrane; details: hek293; also: in other assays of this panel Not Active means under 50% inhibition at 10 µM
Melanocortin receptor 3, sequence (P41968 whole entry): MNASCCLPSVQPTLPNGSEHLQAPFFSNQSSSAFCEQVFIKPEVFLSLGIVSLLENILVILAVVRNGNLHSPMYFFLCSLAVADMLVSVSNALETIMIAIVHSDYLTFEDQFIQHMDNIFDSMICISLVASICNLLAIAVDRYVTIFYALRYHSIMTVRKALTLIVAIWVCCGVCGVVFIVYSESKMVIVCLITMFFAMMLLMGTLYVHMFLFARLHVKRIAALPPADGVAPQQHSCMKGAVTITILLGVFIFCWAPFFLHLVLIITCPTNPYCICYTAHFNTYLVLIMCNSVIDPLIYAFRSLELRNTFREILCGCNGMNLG

| Structure (SMILES) | IC50 [1] | IC50 [2] | IC50 (Glycine receptor) | IC50 ([3]; read-out: IC50) [nM] | Ki ([3]; read-out: Ki) [nM] | IC50 [4] | Ki [4] | IC50 [5] | IC50 (Calcitonin receptor) | IC50 (Melanocortin receptor 3) | IC50 [3] | Ki [3] |
| --- | --- | --- | --- | --- | --- | --- | --- | --- | --- | --- | --- | --- |
| CN(C)c1ccc(C(=C2C=CC(=[N+](C)C)C=C2)c2ccc(N(C)C)cc2)cc1.[Cl-] [GENTIAN VIOLET] | Not Active | Not Active | Not Active | 2130 | 1370 | Not Active | Not Active | Not Active | Not Active | Not Active |  |  |
| Cc1ccc(S(=O)(=O)NC(=O)NN2CC3CCCC3C2)cc1 (stereo not given) [GLICLAZIDE] | Not Active | Not Active | Not Active |  |  | Not Active | Not Active | Not Active | Not Active | Not Active | Not Active | Not Active |
| NC(=O)NO [HYDROXYUREA] | Not Active | Not Active | Not Active |  |  | Not Active | Not Active | Not Active | Not Active | Not Active | Not Active | Not Active |
| CC(C)Cc1ccc(C(C)C(=O)O)cc1 (stereo not given) [IBUPROFEN] | Not Active | Not Active | Not Active |  |  | Not Active | Not Active | Not Active | Not Active | Not Active | Not Active | Not Active |
| COc1ccc2c(c1)c(CC(=O)O)c(C)n2C(=O)c1ccc(Cl)cc1 [INDOMETHACIN] | Not Active | Not Active | Not Active |  |  | Not Active | Not Active | Not Active | Not Active | Not Active | Not Active | Not Active |
| CCc1c2c(nc3ccc(OC(=O)N4CCC(N5CCCCC5)CC4)cc13)-c1cc3c(c(=O)n1C2)COC(=O)[C@]3(O)CC [IRINOTECAN] | Not Active | Not Active | Not Active |  |  | Not Active | Not Active | Not Active | Not Active | Not Active | Not Active | Not Active |
| CC(C(=O)O)c1cccc(C(=O)c2ccccc2)c1 (stereo not given) [KETOPROFEN] | Not Active | Not Active | Not Active |  |  | Not Active | Not Active | Not Active | Not Active | Not Active | Not Active | Not Active |
| Nc1ccn([C@@H]2CS[C@H](CO)O2)c(=O)n1 [LAMIVUDINE] | Not Active | Not Active | Not Active |  |  | Not Active | Not Active | Not Active | Not Active | Not Active | Not Active | Not Active |
| O=S(=O)([O-])CCS.[Na+] [MESNA] | Not Active | Not Active | Not Active |  |  | Not Active | Not Active | Not Active | Not Active | Not Active | Not Active | Not Active |
